Values quoted from earlier work as cited in US20170296666A1, “Stable Pharmaceutical Composition Of Amorphous Ticagrelor” (Amneal Pharmaceuticals Company GmbH, priority 2016, published 2017).

Conditions: class IV = low solubility and low permeability

Biopharmaceutics Classification System (BCS) class: class IV
Compound: CCCSc1nc(N[C@@H]2C[C@H]2c2ccc(F)c(F)c2)c2nnn([C@@H]3C[C@H](OCCO)[C@@H](O)[C@H]3O)c2n1 [Ticagrelor, (1S,2S,3R,5S)-3-[7-{[(1/R,2S)-2-(3,4-difluorophenyl)cyclopropyl]amino}-5 (propylthio)-3H-[1,2,3]-triazolo[4,5-d]pyrimidin-3-yl]-5-(2-hydroxyethoxy) cyclopentane-1,2-diol]
